This passage reports Tmax, AUC(0-inf) and Cmax results from patent US10323035B2, “Co-crystal of a CDK inhibitor and an MEK inhibitor and process of preparation thereof” (CRYSTAL PHARMATECH CO., LTD, priority 2015, dated 2019).

The nature of this data set: Pharmacokinetics in rats after oral administration. Type of data set: in vivo. The conditions noted are these: male, SD, blood. The procedure: Investigations on the pharmacokinetic characteristics of MEK162 free base single compound (group A), equimolar physical mixture of MEK162 and LEE011 succinate (group B) and co-crystal Form I of MEK162-LEE011 (group C) in the rats were conducted. Male SD rats with standard weight were chosen as experimental objects, three rats in a group and were orally administrated. The dosage in group A was 5 mg·kg^−1 (calculated as free base), the dosages of two components in group B were both 5 mg·kg^−1 (calculated as free base), the dosage in group C was 10 mg·kg^−1 (calculated as co-crystal anhydrate form), and dosage of these two components was around 5 mg·kg^−1 (calculated as free base) as calculated by molecular weight.

In the case of `Cn1cnc2c(F)c(Nc3ccc(Br)cc3F)c(C(=O)NOCCO)cc21` [MEK162, 5-[(4-bromo-2-fluorophenyl)amino]-4-fluoro-N-(2-hydroxyethoxy)-1-methyl-1H-benzimidazol-6-carboxamide], under “5 mg·kg^−1, rat, read-out: time to reach maximum concentration (Tmax)”, the Tmax is 15 min. Also, where the note is “rat, about 5 mg·kg^−1 of each component as free base, read-out: AUC0-inf of MEK162”, the AUC(0-inf) was 11300 ± 895 ng·h/mL. The Cmax (rat, about 5 mg·kg^−1 of each component as free base, read-out: maximum concentration of blood drug (Cmax) of MEK162) came to 3240 ± 576 ng/mL.
